Experimental data as given in US20260306642A1, “STAT DEGRADERS AND USES THEREOF” (Recludix Pharma, Inc., priority 2023, published 2026).

What follows are compounds tested against pSTAT3 (Homo sapiens, UniProt P40763) (assay: MSD-pSTAT-PBMC Assay (pSTAT3, IL-6 stimulated)). Settings: compound 3 hrs, then 10 ng/mL IL-6 10 min, pY705-STAT3, read-out: pSTAT3 IC50.
Type: cell-based
Excerpt: Cryopreserved Peripheral Blood Mononuclear Cells (PBMC) are from AllCells. Recombinant Human IL-4 and IL-6 are from Peprotech. Mouse monoclonal anti-STAT3 antibody, rabbit monoclonal anti-pY705-STAT3 antibody, rabbit monoclonal Anti-pY641-STAT6 antibody, and lysis buffer are from Cell Signaling Technology (CST). Mouse monoclonal anti-STAT6 antibody is from BioLegend. Assay plates, blocker, and anti-rabbit secondary antibody are from Meso Scale Discovery (MSD).
Cryopreserved PBMCs were thawed out and allowed to recover overnight in IMDM+10% heat-inactivated FBS prior to plating 50,000 (STAT3) or 25,000 (STAT6) cells per well in 96-well U-bottom tissue culture plates. Cells were treated with compound for 3 hrs, then stimulated with 10 ng/mL IL-6 (STAT3) or 1 ng/mL IL-4 (STAT6) for 10 min. Cells were then spun down and washed with ice-cold PBS prior to lysing the cell pellet with 1× lysis buffer (CST) with 1× HALT protease and phosphatase inhibitor cocktail (Thermo). Lysates were transferred to and incubated overnight at 4° C. with shaking in QuickPlex 96-well high bind assay plates (MSD) pre-coated overnight with 30 μL per well of […] mouse monoclonal anti-STAT3 antibody (STAT3) or 2 μg/mL mouse monoclonal anti-STAT6 antibody (STAT6) in 1× PBS, and pre-blocked for 1 hour with 3% Blocker-A (MSD). Captured protein in the assay plates were then washed and probed with 25 μL per well of […] rabbit monoclonal anti-pY705-STAT3 antibody (STAT3) or […] rabbit monoclonal Anti-pY641-STAT6 antibody (STAT6) in 1% Blocker-A for 1 hour at room temperature with shaking, then washed and probed with 25 ul per well of 1 ug/ml Sulfo-TAG Labeled Goat Anti-Rabbit Antibody (MSD) in 1% Blocker-A for 1 hour at room temperature with shaking. Assay plates were then washed and 150 μL of 1× Read Buffer-T (MSD) was added to each well prior to reading on an SQ120 MSD Plate Reader. Assay signal from each sample was subtracted by the signal from unstimulated control wells and normalized to DMSO control wells. IC50 values were calculated using Graph Pad Prism Dose-Response Nonlinear Regression with variable slope. For both pSTAT3 and pSTAT6 A=≤100 nM; B=>100-1000 nM; C=>1000-3000 nM; and D=>3 μM.

pSTAT3, sequence (P40763 whole entry): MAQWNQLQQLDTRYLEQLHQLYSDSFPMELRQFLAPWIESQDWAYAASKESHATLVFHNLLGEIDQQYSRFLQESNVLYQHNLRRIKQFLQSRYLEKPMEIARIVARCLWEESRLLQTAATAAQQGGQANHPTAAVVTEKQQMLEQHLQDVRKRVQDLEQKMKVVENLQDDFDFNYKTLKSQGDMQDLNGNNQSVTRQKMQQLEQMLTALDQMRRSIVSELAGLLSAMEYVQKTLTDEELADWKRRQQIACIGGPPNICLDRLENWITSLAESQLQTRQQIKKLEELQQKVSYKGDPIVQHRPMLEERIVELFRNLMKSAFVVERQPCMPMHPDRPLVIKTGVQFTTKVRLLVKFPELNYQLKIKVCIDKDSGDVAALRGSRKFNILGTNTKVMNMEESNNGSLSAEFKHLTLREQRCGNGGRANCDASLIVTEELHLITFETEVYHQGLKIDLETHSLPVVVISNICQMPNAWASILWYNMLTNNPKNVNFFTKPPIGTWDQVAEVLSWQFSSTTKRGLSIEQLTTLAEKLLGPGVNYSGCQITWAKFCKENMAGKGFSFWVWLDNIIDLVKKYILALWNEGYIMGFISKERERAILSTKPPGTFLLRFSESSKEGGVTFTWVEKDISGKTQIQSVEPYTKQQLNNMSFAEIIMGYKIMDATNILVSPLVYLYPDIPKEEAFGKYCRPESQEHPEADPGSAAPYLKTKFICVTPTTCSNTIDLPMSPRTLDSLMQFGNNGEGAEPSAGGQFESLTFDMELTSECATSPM

| SMILES | IC50 [nM] |
| --- | --- |
| CCCC(=O)SCCOP(=O)(OCCSC(=O)CCC)C(F)(F)c1ccc2sc(C(=O)N[C@H]3CCC[C@H]4CC[C@@H](C(=O)N5CC(c6cnccc6OCCCCN[C@H](C(=O)N6C[C@H](O)C[C@H]6C(=O)NCc6ccc(-c7scnc7C)cc6)C(C)(C)C)C5)N4C3=O)cc2c1 [Compound 1, S,S((((difluoro(2-(((3S,6S,9aS)-3-(3-(4-(4-(((S)-1-((2S,4R)-4-hydroxy-2-((4-(4-methylthiazol-5-yl)benzyl)carbamoyl)pyrrolidin-1-yl)-3,3-dimethyl-1-oxobutan-2-yl)amino)butoxy)pyridin-3-yl)azetidine-1-carbonyl)-5-oxooctahydro-1H-pyrrolo[1,2-a]azepin-6-yl)carbamoyl)benzo[b]thiophen-5-yl)methyl)phosphoryl)bis(oxy))bis(ethane-2,1-diyl)) dibutanethioate] | 100 to 1000 |
| CCCC(=O)SCCOP(=O)(OCCSC(=O)CCC)C(F)(F)c1ccc2sc(C(=O)N[C@H]3CCC[C@H]4CC[C@@H](C(=O)N5CC(c6cnccc6OCCOCCOc6ccc(C7CCC(=O)NC7=O)cc6)C5)N4C3=O)cc2c1 (stereo partly drawn) [Compound 12, S,S((((2-(((3S,6S,9aS)-3-(3-(4-(2-(2-(4-(2,6-dioxopiperidin-3-yl)phenoxy)ethoxy)ethoxy)pyridin-3-yl)azetidine-1-carbonyl)-5-oxooctahydro-1H-pyrrolo[1,2-a]azepin-6-yl)carbamoyl)benzo[b]thiophen-5-yl)difluoromethyl)phosphoryl)bis(oxy))bis(ethane-2,1-diyl)) dibutanethioate] | < 100 |
| CCCC(=O)SCCOP(=O)(OCCSC(=O)CCC)C(F)(F)c1ccc2sc(C(=O)N[C@H]3CCC[C@H]4CC[C@@H](C(=O)N5CC(c6cnccc6N(C)CCOc6ccc(C7CCC(=O)NC7=O)cc6)C5)N4C3=O)cc2c1 (stereo partly drawn) [Compound 20, S,S(((((2-(((3S,6S,9aS)-3-(3-(4-((2-(4-(2,6-dioxopiperidin-3-yl)phenoxy)ethyl)(methyl)amino)pyridin-3-yl)azetidine-1-carbonyl)-5-oxooctahydro-1H-pyrrolo[1,2-a]azepin-6-yl)carbamoyl)benzo[b]thiophen-5-yl)difluoromethyl)phosphoryl)bis(oxy))bis(ethane-2,1-diyl)) dibutanethioate] | < 100 |
| CCCC(=O)SCCOP(=O)(OCCSC(=O)CCC)C(F)(F)c1ccc2sc(C(=O)N[C@H]3CCC[C@H]4CC[C@@H](C(=O)N5CC(c6cnccc6OCCOc6ccc(C7CCC(=O)NC7=O)cc6)C5)N4C3=O)cc2c1 (stereo partly drawn) [Compound 10, S,S(((((2-(((3S,6S,9aS)-3-(3-(4-(2-(4-(2,6-dioxopiperidin-3-yl)phenoxy)ethoxy)pyridin-3-yl)azetidine-1-carbonyl)-5-oxooctahydro-1H-pyrrolo[1,2-a]azepin-6-yl)carbamoyl)benzo[b]thiophen-5-yl)difluoromethyl)phosphoryl)bis(oxy))bis(ethane-2,1-diyl)) dibutanethioate] | < 100 |
| Cn1c(=O)n(C2CCC(=O)NC2=O)c2ccc(C#CCCC3CCN(c4ccncc4C4CN(C(=O)[C@@H]5CC[C@@H]6CCC[C@H](NC(=O)c7cc8cc(C(F)(F)P(=O)(OCCSC(=O)C(C)(C)C)OCCSC(=O)C(C)(C)C)ccc8s7)C(=O)N65)C4)CC3)cc21 (stereo partly drawn) [Compound 35, S,S(((((2-(((3S,6S,9aS)-3-(3-(4-(4-(4-(1-(2,6-dioxopiperidin-3-yl)-3-methyl-2-oxo-2,3-dihydro-1H-benzo[d]imidazol-5-yl)but-3-yn-1-yl)piperidin-1-yl)pyridin-3-yl)azetidine-1-carbonyl)-5-oxooctahydro-1H-pyrrolo[1,2-a]azepin-6-yl)carbamoyl)benzo[b]thiophen-5-yl)difluoromethyl)phosphoryl)bis(oxy))bis(ethane-2,1-diyl)) bis(2,2-dimethylpropanethioate)] | < 100 |

Same assay, conditions: read-out: pSTAT3 IC50, compound 3 hrs, then 10 ng/mL IL-6 10 min, pY705-STAT3

| SMILES | IC50 [nM] |
| --- | --- |
| CCCOC(=O)[C@H](C)NP(=O)(Oc1ccccc1)[C@@H](F)c1ccc2sc(C(=O)N[C@H]3CCC[C@H]4CC[C@@H](C(=O)N5CC(c6cnccc6N6CCC(CCC#Cc7ccc8c(c7)n(C)c(=O)n8C7CCC(=O)NC7=O)CC6)C5)N4C3=O)cc2c1 (stereo partly drawn) [Compound 38, propyl (((1R)-(2-(((3S,6S,9aS)-3-(3-(4-(4-(4-(1-(2,6-dioxopiperidin-3-yl)-3-methyl-2-oxo-2,3-dihydro-1H-benzo[d]imidazol-5-yl)but-3-yn-1-yl)piperidin-1-yl)pyridin-3-yl)azetidine-1-carbonyl)-5-oxooctahydro-1H-pyrrolo[1,2-a]azepin-6-yl)carbamoyl)benzo[b]thiophen-5-yl)fluoromethyl)(phenoxy)phosphoryl)-L-alaninate] | < 100 |
| CCCC(=O)SCCOP(=O)(OCCSC(=O)CCC)C(F)(F)c1ccc2sc(C(=O)N[C@H]3CCC[C@H]4CC[C@@H](C(=O)N5CC(c6cnccc6N6CCN(C(=O)COc7ccc(C8CCC(=O)NC8=O)cc7)CC6)C5)N4C3=O)cc2c1 (stereo partly drawn) [Compound 29, S,S(((((2-(((3S,6S,9aS)-3-(3-(4-(4-(2-(4-(2,6-dioxopiperidin-3-yl)phenoxy)acetyl)piperazin-1-yl)pyridin-3-yl)azetidine-1-carbonyl)-5-oxooctahydro-1H-pyrrolo[1,2-a]azepin-6-yl)carbamoyl)benzo[b]thiophen-5-yl)difluoromethyl)phosphoryl)bis(oxy))bis(ethane-2,1-diyl)) dibutanethioate] | < 100 |
| CCCOC(=O)[C@H](C)NP(=O)(Oc1ccccc1)[C@H](F)c1ccc2sc(C(=O)N[C@H]3CCC[C@H]4CC[C@@H](C(=O)N5CC(c6cnccc6N6CCC(CCC#Cc7ccc8c(c7)n(C)c(=O)n8C7CCC(=O)NC7=O)CC6)C5)N4C3=O)cc2c1 (stereo partly drawn) [Compound 39, propyl (((1S)-(2-(((3S,6S,9aS)-3-(3-(4-(4-(4-(1-(2,6-dioxopiperidin-3-yl)-3-methyl-2-oxo-2,3-dihydro-1H-benzo[d]imidazol-5-yl)but-3-yn-1-yl)piperidin-1-yl)pyridin-3-yl)azetidine-1-carbonyl)-5-oxooctahydro-1H-pyrrolo[1,2-a]azepin-6-yl)carbamoyl)benzo[b]thiophen-5-yl)fluoromethyl)(phenoxy)phosphoryl)-L-alaninate] | < 100 |
| CCCC(=O)SCCOP(=O)(OCCSC(=O)CCC)C(F)(F)c1ccc2sc(C(=O)N[C@H]3CCC[C@H]4CC[C@@H](C(=O)N5CC(c6cnccc6N6CCC(C(=O)N[C@H](C(=O)N7C[C@H](O)C[C@H]7C(=O)NCc7ccc(-c8scnc8C)cc7)C(C)(C)C)CC6)C5)N4C3=O)cc2c1 [Compound 7, S,S((((difluoro(2-(((3S,6S,9aS)-3-(3-(4-(4-(((S)-1-((2S,4R)-4-hydroxy-2-((4-(4-methylthiazol-5-yl)benzyl)carbamoyl)pyrrolidin-1-yl)-3,3-dimethyl-1-oxobutan-2-yl)carbamoyl)piperidin-1-yl)pyridin-3-yl)azetidine-1-carbonyl)-5-oxooctahydro-1H-pyrrolo[1,2-a]azepin-6-yl)carbamoyl)benzo[b]thiophen-5-yl)methyl)phosphoryl)bis(oxy))bis(ethane-2,1-diyl)) dibutanethioate] | 100 to 1000 |
